# Reference: ChEMBL document CHEMBL1795209, “1-Chloro-2-formyl indenes and tetralenes as antitubercular agents” (Bioorg Med Chem Lett, 2011)
# Active and inactive are the calls of the source. The rule behind the calls is not given here.
# How the values were obtained:
# [1] = test system: Mycobacterium tuberculosis; assay: Antitubercular activity against Mycobacterium tuberculosis H37Rv by Bactec 460 method; format: functional
# [2] = test system: Mycobacterium tuberculosis; assay: Antitubercular activity against Mycobacterium tuberculosis H37Rv at 500 ug/ml by Bactec 460 method; format: functional, organism-based
# Mus musculus [3] = assay: Acute toxicity in Swiss albino mouse assessed as morbidity at 5 to 300 mg/kg, po administered as single dose; format: organism-based; set-up: dose 5-300 mg/kg, route oral; settings: in vivo
# Mus musculus [4] = assay: Acute toxicity in Swiss albino mouse assessed as change in differential leukocyte count at 5 to 300 mg/kg, po administered as single dose; format: organism-based; set-up: dose 5-300 mg/kg, route oral; settings: in vivo
# Mus musculus [5] = assay: Acute toxicity in Swiss albino mouse assessed as observational changes at 5 to 300 mg/kg, po administered as single dose; format: organism-based; set-up: dose 5-300 mg/kg, route oral; settings: in vivo
# Mus musculus [6] = assay: Acute toxicity in Swiss albino mouse assessed as change in total RBC at 5 to 300 mg/kg, po administered as single dose; format: organism-based; set-up: dose 5-300 mg/kg, route oral; settings: in vivo
# Mus musculus [7] = assay: Acute toxicity in Swiss albino mouse assessed as change in triglyceride level at 5 to 300 mg/kg, po administered as single dose; format: organism-based; set-up: dose 5-300 mg/kg, route oral; settings: in vivo
# Mus musculus [8] = assay: Acute toxicity in Swiss albino mouse assessed as change in SGOT level at 5 to 300 mg/kg, po administered as single dose; format: organism-based; set-up: dose 5-300 mg/kg, route oral; settings: in vivo
# Mus musculus [9] = assay: Acute toxicity in Swiss albino mouse assessed as mortality at 5 to 300 mg/kg, po administered as single dose; format: organism-based; set-up: dose 5-300 mg/kg, route oral; settings: in vivo
# Mus musculus [10] = assay: Acute toxicity in Swiss albino mouse assessed as change in creatinine level at 5 to 300 mg/kg, po administered as single dose; format: organism-based; set-up: dose 5-300 mg/kg, route oral; settings: in vivo
# Mus musculus [11] = assay: Acute toxicity in Swiss albino mouse assessed as change in serum total cholesterol level at 5 to 300 mg/kg, po administered as single dose; format: organism-based; set-up: dose 5-300 mg/kg, route oral; settings: in vivo
# Mus musculus [12] = assay: Acute toxicity in Swiss albino mouse assessed as change in total WBC count at 5 to 300 mg/kg, po administered as single dose; format: organism-based; set-up: dose 5-300 mg/kg, route oral; settings: in vivo
# [13] = Acute toxicity in po dosed Swiss albino mouse administered as single dose; format: organism-based; settings: in vivo
# Mus musculus [14] = assay: Acute toxicity in Swiss albino mouse assessed as change in hemoglobin level at 5 to 300 mg/kg, po administered as single dose; format: organism-based; set-up: dose 5-300 mg/kg, route oral; settings: in vivo
# Mus musculus [15] = assay: Acute toxicity in Swiss albino mouse assessed as change in absolute and relative weight of the organs at 5 to 300 mg/kg, po administered as single dose; format: organism-based; set-up: dose 5-300 mg/kg, route oral; settings: in vivo
# Mus musculus [16] = assay: Acute toxicity in Swiss albino mouse assessed as change in SGPT level at 5 to 300 mg/kg, po administered as single dose; format: organism-based; set-up: dose 5-300 mg/kg, route oral; settings: in vivo
structure (smiles),measurement,setting,value
COc1cc2c(cc1C=O)C=CCC2,MIC,[1],500 µg/mL
O=CC1=C(Cl)c2ccccc2CC1,MIC,[1],60 µg/mL
O=CC1=C(Cl)c2ccccc2C1c1ccccc1 (configuration not stated),MIC,[1],250 µg/mL
CO[C@H]1CCC(=O)c2cccc(O)c21,MIC,[1],6.25 µg/mL
COc1ccc2c(c1)C(Cl)=C(C=O)C1C2CC[C@@]2(C)C1CC[C@@H]2OC(C)=O (some centres not stated),Activity,[2],inactive
Cc1cccc2c1C(Cl)=C(C=O)C2,MIC,[1],125 µg/mL
COc1ccc2c(c1)CCC(CO)=C2Cl,MIC,[1],500 µg/mL
COc1ccc2c(c1)CCCC2OC(C)=O (configuration not stated),MIC,[1],30 µg/mL
Cc1ccc2c(c1)CC(C=O)=C2Cl,MIC,[1],250 µg/mL
O=CC1=C(Cl)c2cc3c(cc2C1)OCO3,MIC,[1],125 µg/mL
Cc1cc(O)c2c(c1)[C@H](O)CCC2=O [SHINANOLONE],MIC,[1],100 µg/mL
COc1ccc2c(c1)CCC/C2=N\O,MIC,[1],500 µg/mL
CO[C@H]1/C=C/O[C@@]2(C)Oc3c(C)c(O)c4c(O)c(c(/C=N/N5CCN(C)CC5)c(O)c4c3C2=O)NC(=O)/C(C)=C\C=C\[C@H](C)[C@H](O)[C@@H](C)[C@@H](O)[C@@H](C)[C@H](OC(C)=O)[C@@H]1C [RIFAMPIN],MIC,[1],2 µg/mL
O=Cc1cc2ccccc2c(Cl)c1C=O,MIC,[1],500 µg/mL
COc1ccc2c(c1)CCC(OC=O)=C2Cl,Activity,Mus musculus [3],Non-toxic
same,MIC,[1],30 µg/mL
same,Activity,Mus musculus [4],Non-toxic
same,Activity,Mus musculus [5],Non-toxic
same,Activity,Mus musculus [6],Non-toxic
same,Activity,Mus musculus [7],Non-toxic
same,Activity,Mus musculus [8],Non-toxic
same,Activity,Mus musculus [9],Non-toxic
same,Activity,Mus musculus [10],Non-toxic
same,Activity,Mus musculus [11],Non-toxic
same,Activity,Mus musculus [12],Non-toxic
same,MTD,[13],300 mg/kg
same,Activity,Mus musculus [14],Non-toxic
same,Activity,Mus musculus [15],Non-toxic
same,Activity,Mus musculus [16],Non-toxic
CN[C@@H]1[C@H](O[C@H]2[C@H](O[C@H]3[C@H](O)[C@@H](O)[C@H](N=C(N)N)[C@@H](O)[C@@H]3N=C(N)N)O[C@@H](C)[C@]2(O)C=O)O[C@@H](CO)[C@H](O)[C@H]1O [STREPTOMYCIN],MIC,[1],2 µg/mL
CC1CC(C=O)=C(Cl)c2ccccc21 (configuration not stated),MIC,[1],125 µg/mL
COc1ccc2c(c1)CCC(C=O)=C2Cl,MIC,[1],125 µg/mL
O=CC1=C(Cl)c2ccc(Cl)cc2C1,MIC,[1],125 µg/mL
COc1ccc2c(c1)CCCC2,MIC,[1],125 µg/mL
COc1cc(C2C(C=O)=C(Cl)c3cc(OC)c(OC)c(OC)c32)cc(OC)c1OC (configuration not stated),Activity,[2],inactive
COc1ccc2c(c1)CCCC2O (configuration not stated),Activity,[2],inactive
COc1ccc2c(c1)CC(C=O)=C2Cl,MIC,[1],125 µg/mL
